pIC50: −log10 of the molar value.
The compounds below were run against Human Factor D (Homo sapiens (Human), UniProt P00746) (assay: Human Factor D Assay). Details: Factor D inhibition, assay of Example 10; read-out: IC5 (Stars).
Human Factor D, sequence (P00746 26-253): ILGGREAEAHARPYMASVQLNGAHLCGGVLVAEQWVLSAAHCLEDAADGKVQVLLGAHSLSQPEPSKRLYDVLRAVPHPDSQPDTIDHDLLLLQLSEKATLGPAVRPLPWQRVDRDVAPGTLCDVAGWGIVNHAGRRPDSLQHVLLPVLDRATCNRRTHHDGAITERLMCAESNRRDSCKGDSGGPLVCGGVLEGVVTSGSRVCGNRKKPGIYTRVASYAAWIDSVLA
Format: biochemical
Summary of the method: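 Serum-purified Factor D (80 nM final) preincubated 5 min at room temperature with compound in 50 mM Tris, 1 M NaCl, pH 7.5. Z-L-Lys-SBz and DTNB added at 100 μM each; A405 followed every 30 s for 30 min. IC50 from nonlinear regression of rates versus concentration.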
`CC(=O)c1nn(CC(=O)N2[C@H](C(=O)Nc3nc(Br)c(F)cc3C)C[C@@]3(CC#N)C[C@@H]23)c2cnc(-c3cnc(C)nc3)cc12` [Compound 249, (1R,3S,5R)-2-(2-(3-acetyl-5-(2-methylpyrimidin-5-yl)-1H-pyrazolo[3,4-c]pyridin-1-yl)acetyl)-N-(6-bromo-5-fluoro-3-methylpyridin-2-yl)-5-(cyanomethyl)-2-azabicyclo[3.1.0]hexane-3-carboxamide] showed a pIC50 of over 6.00.
With `CC(=O)c1nn(CC(=O)N2[C@H](C(=O)Nc3nc(Br)c(F)cc3C)C[C@@]3(CN4CC(F)(F)C4)C[C@@H]23)c2cnc(-c3cnc(C)nc3)cc12` [Compound 250, (1R,3S,5R)-2-(2-(3-acetyl-5-(2-methylpyrimidin-5-yl)-1H-pyrazolo[3,4-c]pyridin-1-yl)acetyl)-N-(6-bromo-5-fluoro-3-methylpyridin-2-yl)-5-((3,3-difluoroazetidin-1-yl)methyl)-2-azabicyclo[3.1.0]hexane-3-carboxomide] the pIC50 was over 6.00.
Work on `CC(=O)c1nn(CC(=O)N2[C@H](C(=O)Nc3nc(Br)c(F)cc3C)C[C@@]3(CF)C[C@@H]23)c2cnc(-c3cnc(C)nc3)cc12` [Compound 251] yielded a pIC50 of over 6.00.
For `CC(=O)c1nn(CC(=O)N2[C@H](C(=O)Nc3nc(Br)c(F)cc3C)C[C@@]3(CN4CC5(CCCC5)C4)C[C@@H]23)c2cnc(-c3cnc(C)nc3)cc12` [Compound 252, (1R,3S,5R)-5-(2-azaspirp[3.4]octan-2-ylmethyl)-2-(2-(3-acetyl-5-(2-methylpyrimidin-5-yl)-1H-pyrazole[3,4-c]pyridin-1-yl)acetyl)-N-(6-bromo-5-fluoro-3-methylpyridin-2-yl)-2-azabicyclo[3.1.0]hexane-3-carboxomide], the pIC50 was over 6.00.
In the case of `CC(=O)c1nn(CC(=O)N2[C@H](C(=O)Nc3nc(Br)c(F)cc3C)C[C@@]3(CN4C[C@H]5CCC[C@H]5C4)C[C@@H]23)c2cnc(-c3cnc(C)nc3)cc12` [Compound 253, (1R,3S,5R)-2-(2-(3-acetyl-5-(2-methylpyrimidin-5-yl)-1H-pyrazolo[3,4-c]pyridin-1-yl)acetyl)-N-(6-bromo-5-fluoro-3-methylpyridin-2-yl)-5-(((3aR,6aS)-hexahydrocyclopenta [c]pyrrol-2(1H)-yl)methyl)-2-azabicyclo[3.1.0]hexane-3-carboxamide], the pIC50 was over 6.00.
With `CC(=O)c1nn(CC(=O)N2[C@H](C(=O)Nc3nc(Br)c(F)cc3C)C[C@@]3(C)C[C@@H]23)c2cnc(-c3cnc(C)[n+]([O-])c3)cc12` [Compound 254, 5-(3-acetyl-1-(2-((1R,3S,5R)-3-((6-bromo-5-fluoro-3-methylpyridin-2-yl)carbamoyl)-5-methyl-2-azabicyclo[3.1.0]hexane-2-yl)-2-oxoethyl)-1H-pyrazolo[3,4-c]pyridin-5-yl)-2-methylpyrimidine 1-oxide] the pIC50 was over 6.00.
In the case of `CC(=O)c1nn(CC(=O)N2[C@H](C(=O)Nc3nc(OC(F)(F)F)ccc3C)C[C@@]3(C)C[C@@H]23)c2cnc(-c3cnc(C)nc3)cc12` [Compound 256], the pIC50 was over 6.00.
`CC(=O)c1nn(CC(=O)N2[C@H](C(=O)Nc3nc(Br)ccc3CC(C)C)C[C@@]3(C)C[C@@H]23)c2cnc(-c3cnc(C)nc3)cc12` [Compound 258, (1R,3S,5R)-2-(2-(3-acetyl-5-(2-methylpyrimidin-5-yl)-1H-pyrazolo[3,4-c]pyridin-1-yl)acetyl)-N-(6-bromo-3-isobutylpyridin-2-yl)-5-methyl-2-azabicyclo[3.1.0]hexane-3-carboxamide] was tested, and the pIC50 was over 6.00.
With `CC(=O)c1nn(CC(=O)N2[C@H](C(=O)Nc3nc(Br)ccc3C)C[C@@]3(CN(CCO)CCO)C[C@@H]23)c2cnc(-c3cnc(C)nc3)cc12` [Compound 262, (1R,3S,5R)-2-(2-(3-acetyl-5-(2-methylpyrimidin-5-yl)-1H-pyrazolo[3,4-c]pyridin-1-yl)acetyl)-5-((bis(2-hydroxyethyl)amino)methyl)-N-(6-bromo-3-methylpyridin-2-yl)-2-azabicyclo[3.1.0] hexane-3-carboxamide] the pIC50 was over 6.00.
`CC(=O)c1nn(CC(=O)N2[C@H](C(=O)Nc3nc(Br)c(F)cc3C)C[C@@]3(CN(C)C)C[C@@H]23)c2c(C)cc(-c3cnc(C)nc3)cc12` [Compound 263, (1R,3S,5R)-2-(2-(3-acetyl-7-methyl-5-(2-methylpyrimidin-5-yl)-1H-indazol-1-yl)acetyl)-N-(6-bromo-5-fluoro-3-methylpyridin-2-yl)-5-((dimethylamino)methyl)-2-azabicyclo[3.1.0] hexane-3-carboxamide] gave a pIC50 of over 6.00.
`CC(=O)c1nn(CC(=O)N2[C@H](C(=O)Nc3nc(Br)c(F)cc3C)C[C@@]3(CN(C)C)C[C@@H]23)c2cnc(-c3cnc(C)nc3)cc12` [Compound 264, (1R,3S,5R)-2-(2-(3-acetyl-5-(2-methylpyrimidin-5-yl)-1H-pyrazolo[3,4-c]pyridin-1-yl)acetyl)-N-(6-bromo-5-fluoro-3-methylpyridin-2-yl)-5-((dimethylamino)methyl)-2-azabicyclo[3.1.0] hexane-3-carboxamide] was tested, and the pIC50 was over 6.00.
`CC(=O)c1nn(CC(=O)N2[C@H](C(=O)Nc3nc(Br)c(F)cc3C)C[C@@]3(C)C[C@@H]23)c2c(C(F)(F)F)nc(-c3cnc(C)nc3)cc12` [Compound 271, (1R,3S,5R)-2-(2-(3-acetyl-5-(2-methylpyrimidin-5-yl)-7-(trifluoromethyl)-1H-pyrazolo[3,4-c]pyridin-1-yl)acetyl)-N-(6-bromo-5-fluoro-3-methylpyridin-2-yl)-5-methyl-2-azabicyclo[3.1.0]hexane-3-carboxamide] was tested, and the pIC50 was over 6.00.
Work on `CC(=O)c1nn(CC(=O)N2[C@H](C(=O)Nc3nc(Br)ccc3CN3CC4CC3CO4)C[C@@]3(C)C[C@@H]23)c2cnc(-c3cnc(C)nc3)cc12` (stereo partly drawn) [Compound 277, (1R,3S,5R)-N-(3-(2-oxa-5-azabicyclo[2.2.1]heptan-5-ylmethyl)-6-bromopyridin-2-yl)-2-(2-(3-acetyl-5-(2-methylpyrimidin-5-yl)-1H-pyrazolo[3,4-c]pyridin-1-yl)acetyl)-5-methyl-2-azabicyclo[3.1.0]hexane-3-carboxamide] yielded a pIC50 of over 6.00.
In the case of `CC(=O)c1nn(CC(=O)N2[C@H](C(=O)Nc3nc(Br)ccc3C)C[C@@]3([C@H](O)CO)C[C@@H]23)c2cnc(-c3cnc(C)nc3)cc12` [Compound 282], the pIC50 was over 6.00.
Compound `CC[C@@]12C[C@@H](C(=O)Nc3nc(Br)ccc3C)N(C(=O)Cn3nc(C(C)=O)c4cc(-c5cnc(C)nc5)ccc43)[C@@H]1C2` [Compound 286, (1R,3S,5R)-2-(2-(3-acetyl-5-(2-methylpyrimidin-5-yl)-1H-indazol-1-yl)acetyl)-N-(6-bromo-3-methylpyridin-2-yl)-5-ethyl-2-azabicyclo[3.1.0]hexane-3-carboxamide] has a pIC50 of over 6.00.
`CC(=O)c1nn(CC(=O)N2[C@H](C(=O)Nc3nc(Br)ccc3C)C[C@@]3(CCS(C)(=N)=O)C[C@@H]23)c2c(C)cc(-c3cnc(C)nc3)cc12` (stereo partly drawn) [Compound 287, (1R,3S,5R)-2-(2-(3-acetyl-7-methyl-5-(2-methylpyrimidin-5-yl)-1H-indazol-1-yl)acetyl)-N-(6-bromo-3-methylpyridin-2-yl)-5-(2-(S-methylsulfonimidoyl)ethyl)-2-azabicyclo[3.1.0]hexane-3-carboxamide] gave a pIC50 of over 6.00.
In the case of `CC(=O)c1nn(CC(=O)N2[C@H](C(=O)Nc3nc(Br)ccc3C)C[C@@]3(CCS(C)(=O)=O)C[C@@H]23)c2c(C)cc(-c3cnc(C)nc3)cc12` [Compound 288, (1R,3S,5R)-2-(2-(3-acetyl-7-methyl-5-(2-methylpyrimidin-5-yl)-1H-indazol-1-yl)acetyl)-N-(6-bromo-3-methylpyridin-2-yl)-5-(2-(methylsulfonyl)ethyl)-2-azabicyclo[3.1.0]hexane-3-carboxamide], the pIC50 was over 6.00.
`CC(=O)c1nn(CC(=O)N2[C@H](C(=O)Nc3nc(Br)ccc3CN3C(C)(C)COCC3(C)C)C[C@@]3(C)C[C@@H]23)c2cnc(-c3cnc(C)nc3)cc12` [Compound 289, (1R,3S,5R)-2-(2-(3-acetyl-5-(2-methylpyrimidin-5-yl)-1H-pyrazolo[3,4-c]pyridin-1-yl)acetyl)-N-(6-bromo-3-((3,3,5,5-tetramethylmorpholino)methyl)pyridin-2-yl)-5-methyl-2-azabicyclo[3.1.0]hexane-3-carboxamide] showed a pIC50 of over 6.00.
`CC(=O)c1nn(CC(=O)N2[C@H](C(=O)Nc3nc(Br)ccc3C)C[C@@]3(CN4CCCC4)C[C@@H]23)c2c(C)cc(-c3cnc(C)nc3)cc12` [Compound 296, (1R,3S,5R)-2-(2-(3-acetyl-7-methyl-5-(2-methylpyrimidin-5-yl)-1H-indazol-1-yl)acetyl)-N-(6-bromo-3-methylpyridin-2-yl)-5-(pyrrolidin-1-ylmethyl)-2-azabicyclo[3.1.0]hexane-3-carboxamide] gave a pIC50 of over 6.00.
`CC(=O)c1nn(CC(=O)N2[C@H](C(=O)Nc3nc(Br)ccc3C)C[C@@]3(CNC(C)C)C[C@@H]23)c2c(C)cc(-c3cnc(C)nc3)cc12` [Compound 297, (1R,3S,5R)-2-(2-(3-acetyl-7-methyl-5-(2-methylpyrimidin-5-yl)-1H-indazol-1-yl)acetyl)-N-(6-bromo-3-methylpyridin-2-yl)-5-((isopropylamino)methyl)-2-azabicyclo[3.1.0]hexane-3-carboxamide] gave a pIC50 of over 6.00.
`COC(=O)[C@@H]1CCCN1C[C@@]12C[C@@H](C(=O)Nc3nc(Br)ccc3C)N(C(=O)Cn3nc(C(C)=O)c4cc(-c5cnc(C)nc5)cc(C)c43)[C@@H]1C2` [Compound 298, methyl (((1R,3S,5R)-2-(2-(3-acetyl-7-methyl-5-(2-methylpyrimidin-5-yl)-1H-indazol-1-yl)acetyl)-3-((6-bromo-3-methylpyridin-2-yl)carbamoyl)-2-azabicyclo[3.1.0]hexan-5-yl)methyl)-L-prolinate] showed a pIC50 of over 6.00.

Same assay, conditions: Table 8; Factor D 80 nM, substrate Z-L-Lys-SBz; read-out: IC50
In the case of `C=CCCCC(=O)NC[C@@]12C[C@@H](C(=O)Nc3nc(Br)ccc3C)N(C(=O)Cn3nc(C(C)=O)c4cc(-c5cnc(C)nc5)cc(CCC=C)c43)[C@@H]1C2` [Compound 266, (1R,3S,5R)-2-(2-(3-acetyl-7-(but-3-en-l-yl)-5-(2-methylpyrimidin-5-yl)-1H-indazol-1-yl)acetyl)-N-(6-bromo-3-methylpyridin-2-yl)-5-(hex-5-enamidomethyl)-2-azabicyclo[3.1.0]hexane-3-carboxamide], the pIC50 was over 6.00.

Source: US11084800B2 (Achillion Pharmaceuticals, Inc., priority 2017, dated 2021)
